Reference: patent US20250177473A1, “PEPTIDE REGULATORS OF METABOLISM” (Metabico, Inc., priority 2022, published 2025)

Columns and labels:
TNF-α = TNF-α mRNA expression in LPS-induced primary mouse fibroblasts; type: cell-based; conditions: LPS 0.5 μg/mL 24 h; DLSKEPSISRE 0.05 mg/mL or metformin 1 mM
Protocol: (§1) The study was carried out in primary mouse fibroblasts. Isolation of fibroblasts was carried out with techniques described earlier (See Example 1). Fibroblasts were cultured for 3 days. The following stressors were applied separately: bacterial lipopolysaccharides (LPS), high glucose in the incubation medium, and serum-free incubation medium.
(§2) LPS is a major outer surface membrane component that induces an inflammatory response in cells.
(§3) Isolation of mRNA, synthesis of the first strand of cDNA, and RT-PCR were performed with techniques described earlier (See Example 1). Expression levels of IRS2, TNF-α, IL-6, and GSK3p (WNT-pathway) were analyzed.
(§4) The study was carried out in primary mouse fibroblasts. Isolation of fibroblasts was carried out with techniques described earlier (See Example 1). Incubation of fibroblasts with 100 μM individual peptides and 0.5 μg/mL LPS was carried out for 24 hours. Each treatment group was represented in two biological replicates.
(§5) Isolation of mRNA, synthesis of the first strand of cDNA, and RT-PCR were performed with techniques described earlier (See Example 1). Expression levels of RPL27, TNF-α, IL-6, and IRS2 genes were analyzed.

IL-6 = IL-6 mRNA expression in LPS-induced primary mouse fibroblasts; type: cell-based; conditions: LPS 0.5 μg/mL 24 h; DLSKEPSISRE 0.05 mg/mL or metformin 1 mM
Protocol: as §1, §2, §3, §4, §5

[1] = system: C57BL/6 mice on a high-fat diet; assay: Tolerability observations in HFD mice study; type: in vivo, mouse; conditions: metformin 250 mg/kg p.o.
Protocol: Groups of 10 animals were formed from the existing groups from Stage 2, with similar mean body weight (Table 6). The animals' bodyweight was monitored three times a week, water, and feed consumption—weekly. After the last treatment, the animals were euthanized for necropsy and their blood collected. The internal organs were examined for the presence of macro damage and weighed. The adipose tissue surrounding the epididymis was evaluated as a marker of obesity in animals. For histological examination, samples of adipose tissue and liver tissue were fixed in 10% formalin solution for further histological analysis.
During necropsy, the body's external state, internal surfaces, the cranial cavity, chest, abdominal and pelvic cavities with organs and tissues located in them, the neck with organs and tissues, the skeleton, and the musculoskeletal system were examined. The organs and tissues were fixed in 10% formalin. Liver and adipose tissue samples were weighed and stored in 10% formalin for subsequent histological analysis.

CN(C)C(=N)N=C(N)N [Metformin]
LPS-induced expression of TNF-α (TNF-α): similarly | LPS-induced expression of IL-6 (IL-6): similarly | death of animals after administration [1]: 2 animals | deviations in the state of health observed after the first injection [1]: hunching, tremor, weight loss
